Experimental data taken from US9302991B2, “Arylamide derivatives as TTX-S blockers” (RaQualia Pharma Inc., priority 2010, dated 2016).
pIC50: −log10 of the molar value.

Biological target: T1, human Nav1.7 channels (Homo sapiens, UniProt Q15858)
T1 construct: expressed in transfected cells; host or cells: CHO
Experiment: FRET assay, human Nav1.7 (EFS on FDSS)
Type: cell-based
Settings: CHO cells expressing human Nav1.7, read-out: IC50 against Nav1.7
Procedure, shortened: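 CHO cells stably expressing the channel, loaded with CC2-DMPE (10 µM) then DiSBAC2(3) (15 µM) plus VABSC-1, in HEPES-buffered saline pH 7.4 at room temperature. Electrical field stimulation on FDSS; FRET ratio at 440 nm fitted for IC50.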

T1 sequence (Q15858 whole entry): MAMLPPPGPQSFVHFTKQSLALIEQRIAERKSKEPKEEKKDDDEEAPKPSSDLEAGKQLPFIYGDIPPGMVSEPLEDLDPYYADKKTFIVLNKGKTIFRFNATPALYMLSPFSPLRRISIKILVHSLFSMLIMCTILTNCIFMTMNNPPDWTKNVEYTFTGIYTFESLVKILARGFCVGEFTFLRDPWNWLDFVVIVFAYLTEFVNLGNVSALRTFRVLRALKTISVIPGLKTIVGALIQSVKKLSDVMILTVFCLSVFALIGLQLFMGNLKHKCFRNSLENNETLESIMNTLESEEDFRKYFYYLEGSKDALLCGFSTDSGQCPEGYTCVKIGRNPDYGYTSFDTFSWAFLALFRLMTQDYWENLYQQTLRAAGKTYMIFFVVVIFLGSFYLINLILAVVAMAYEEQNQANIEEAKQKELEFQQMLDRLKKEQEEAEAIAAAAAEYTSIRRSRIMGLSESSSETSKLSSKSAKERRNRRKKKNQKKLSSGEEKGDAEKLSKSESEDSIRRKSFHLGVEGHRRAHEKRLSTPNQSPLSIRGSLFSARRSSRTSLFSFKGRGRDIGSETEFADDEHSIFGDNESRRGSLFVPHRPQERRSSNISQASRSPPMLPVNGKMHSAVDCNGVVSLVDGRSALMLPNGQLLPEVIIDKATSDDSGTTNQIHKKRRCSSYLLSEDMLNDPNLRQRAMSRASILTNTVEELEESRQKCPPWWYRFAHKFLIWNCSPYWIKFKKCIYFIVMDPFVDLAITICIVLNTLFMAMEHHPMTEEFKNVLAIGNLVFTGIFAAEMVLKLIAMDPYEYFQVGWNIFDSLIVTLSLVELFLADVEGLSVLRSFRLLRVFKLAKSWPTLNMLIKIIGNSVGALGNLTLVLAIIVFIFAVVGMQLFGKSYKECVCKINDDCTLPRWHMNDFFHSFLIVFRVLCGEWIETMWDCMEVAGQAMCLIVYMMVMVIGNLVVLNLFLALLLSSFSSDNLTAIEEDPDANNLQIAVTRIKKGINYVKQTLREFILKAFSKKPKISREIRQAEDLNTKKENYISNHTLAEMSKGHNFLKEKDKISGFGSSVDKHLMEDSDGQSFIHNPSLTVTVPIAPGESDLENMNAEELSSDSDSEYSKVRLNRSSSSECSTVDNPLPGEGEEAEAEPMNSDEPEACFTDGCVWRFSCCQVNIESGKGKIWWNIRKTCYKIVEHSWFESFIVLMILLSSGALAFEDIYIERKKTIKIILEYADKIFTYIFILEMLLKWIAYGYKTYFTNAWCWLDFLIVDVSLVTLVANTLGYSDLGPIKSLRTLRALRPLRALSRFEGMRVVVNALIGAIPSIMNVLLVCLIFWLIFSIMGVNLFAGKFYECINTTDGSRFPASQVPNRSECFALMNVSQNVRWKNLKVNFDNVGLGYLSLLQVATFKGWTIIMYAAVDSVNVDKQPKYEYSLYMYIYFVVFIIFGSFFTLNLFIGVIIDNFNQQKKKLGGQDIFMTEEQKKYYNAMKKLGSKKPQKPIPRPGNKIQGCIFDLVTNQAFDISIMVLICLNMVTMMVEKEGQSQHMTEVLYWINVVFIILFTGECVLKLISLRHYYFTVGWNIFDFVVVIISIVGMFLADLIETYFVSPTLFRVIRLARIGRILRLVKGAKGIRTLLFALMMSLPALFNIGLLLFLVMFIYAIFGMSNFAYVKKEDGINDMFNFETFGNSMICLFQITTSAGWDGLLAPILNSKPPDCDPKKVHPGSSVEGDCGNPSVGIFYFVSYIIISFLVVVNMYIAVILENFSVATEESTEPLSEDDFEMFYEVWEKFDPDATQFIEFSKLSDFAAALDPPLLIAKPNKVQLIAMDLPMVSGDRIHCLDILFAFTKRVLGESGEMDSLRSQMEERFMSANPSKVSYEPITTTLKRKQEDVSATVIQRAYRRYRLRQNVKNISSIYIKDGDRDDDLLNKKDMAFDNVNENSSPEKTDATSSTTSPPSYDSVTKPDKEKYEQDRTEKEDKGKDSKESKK

Row | SMILES | pIC50
1 | CC(NC(=O)c1ccnc(NC(=O)C2CC2)n1)c1ccc(OCC(F)(F)F)cc1Cl (single isomer, unassigned) [Example 802, N-(1-(2-chloro-4-(2,2,2-trifluoroethoxy)phenyl)ethyl)-2-(cyclopropanecarboxamido)pyrimidine-4-carboxamide] | > 6.00
2 | Cc1cc(C(=O)NC(C)c2ccc(OCC(F)(F)F)cc2Cl)nc(NC(=O)C2CC2)n1 (single isomer, unassigned) [Example 803, N-(1-(2-chloro-4-(2,2,2-trifluoroethoxy)phenyl)ethyl)-2-(cyclopropanecarboxamido)-6-methylpyrimidine-4-carboxamide] | > 6.00
3 | Cc1cc(C(=O)NC(C)c2ccc(OCC(F)(F)C(F)F)nc2)cc(NC(=O)C2CC2)n1 (single isomer, unassigned) [Example 828] | > 6.00
4 | Cc1cc(C(=O)NC(C)c2cccc(OC(F)(F)F)c2)cc(NC(=O)C2CC2)n1 (single isomer, unassigned) [Example 839, 2-(cyclopropanecarboxamido)-6-methyl-N-(1-(3-(trifluoromethoxy)phenyl)ethyl)isonicotinamide] | > 6.00
5 | Cc1cc(C(C)NC(=O)c2ccnc(NC(=O)C3CC3)n2)ccc1OCC(F)F (single isomer, unassigned) [Example 863, 2-(cyclopropanecarboxamido)-N-(1-(4-(2,2-difluoroethoxy)-3-methylphenyl)ethyl)pyrimidine-4-carboxamide] | > 6.00
6 | Cc1cc(C(=O)NC(C)c2ccc(OCC(F)F)c(C)c2)cc(NC(=O)C(C)C)n1 (single isomer, unassigned) [Example 865, N-(1-(4-(2,2-difluoroethoxy)-3-methyphenyl)ethyl)-2-isobutyramido-6-methylisonicotinamide] | > 6.00
7 | Cc1cc(C(=O)NC(C)c2ccc(OCC(F)F)c(C)c2)cc(NC(=O)C2CC2)n1 (single isomer, unassigned) [Example 866, 2-(cyclopropanecarboxamido)-N-(1-(4-(2,2-difluoroethoxy)-3-methylphenyl)ethyl)-6-methylisonicotinamide] | > 6.00
8 | CCc1cc(C(C)NC(=O)c2ccnc(NC(=O)C3CC3)n2)cnc1OCC(F)F (single isomer, unassigned) [Example 890, 2-(cyclopropanecarboxamido)-N-(1-(6-(2,2-difluoroethoxy)-5-ethylpyridin-3-yl)ethyl)pyrimidine-4-carboxamide] | > 6.00
9 | CCc1cc(C(C)NC(=O)c2cc(C)nc(NC(=O)C(C)C)c2)cnc1OCC(F)F (single isomer, unassigned) [Example 893, N-(1-(6-(2,2-difluoroethoxy)-5-ethylpyridin-3-yl)ethyl)-2-isobutyramido-6-methylisonicotinamide] | > 6.00
10 | CC(=O)Nc1cc(C(=O)NC(C)c2cnc(OCC(F)(F)C(F)F)c(C)c2)ccn1 (single isomer, unassigned) [Example 903, 2-acetamido-N-(1-(5-methyl-6-(2,2,3,3-tetrafluoropropoxy)pyridin-3-yl)ethyl)isonicotinamide] | > 6.00
11 | Cc1cc(C(=O)NC(C)c2cnc(OCC(F)(F)C(F)F)c(C)c2)nc(NC(=O)C2CC2)n1 (single isomer, unassigned) [Example 907, 2-(cyclopropanecarboxamido)-6-methyl-N-(1-(5-methyl-6-(2,2,3,3-tetrafluoropropoxy)pyridin-3-yl)ethyl)pyrimidine-4-carboxamide] | > 6.00
12 | CC(=O)Nc1cc(C(=O)NC(C)c2ccc(OCC(F)(F)C(F)(F)F)nc2)ccn1 (single isomer, unassigned) [Example 924, 2-acetamido-N-(1-(6-(2,2,3,3,3-pentafluoropropoxy)pyridin-3-yl)ethyl)isonicotinamide] | > 6.00
13 | Cc1cc(C(=O)NC(C)c2cnc(OCC(F)F)c(C)c2)cc(NC(=O)C2CC2)n1 (single isomer, unassigned) [Example 938, 2-(cyclopropanecarboxamido)-N-(1-(6-(2,2-difluoroethoxy)-5-methylpyridin-3-yl)ethyl)-6-methylisonicotinamide] | > 6.00
14 | Cc1cc(C(=O)NC(C)c2cc(C(F)(F)F)ccc2F)cc(NC(=O)C(C)C)n1 (single isomer, unassigned) [Example 980, N-(1-(2-fluoro-5-(trifluoromethyl)phenyl)ethyl)-2-isobutyramido-6-methylisonicotinamide] | > 6.00
15 | CC(=O)Nc1cc(C(=O)NC(C)c2cccc(OCC(F)(F)F)c2)cc(C)n1 (single isomer, unassigned) [Example 1009, 2-acetamido-6-methyl-N-(1-(3-(2,2,2-trifluoroethoxy)phenyl)ethyl)isonicotinamide] | > 6.00
16 | CC(=O)Nc1cc(C(=O)NC(C)c2cccc(SC(F)(F)F)c2)cc(C)n1 (single isomer, unassigned) [Example 1031, 2-acetamido-6-methyl-N-(1-(3-((trifluoromethyl)thio)phenyl)ethyl)isonicotinamide] | > 6.00
17 | Cc1cc(C(=O)NC(C)c2ccc(OCC(C)(F)F)nc2)cc(NC(=O)C2CC2)n1 (single isomer, unassigned) [Example 1064] | > 6.00
18 | Cc1cc(C(=O)NC(C)c2ccc(OCC(F)F)c(C)c2)nc(NC(=O)C2CC2)n1 (single isomer, unassigned) [Example 1075, 2-(cyclopropanecarboxamido)-N-(1-(4-(2,2-difluoroethoxy)-3-methylphenyl)ethyl)-6-methylpyrimidine-4-carboxamide] | > 6.00
19 | CC(=O)Nc1cc(C(=O)NC(C)c2cc(C(F)(F)F)ccc2F)ccn1 (single isomer, unassigned) [Example 1096, 2-acetamido-N-(1-(2-fluoro-5-(trifluoromethyl)phenyl)ethyl)isonicotinamide] | > 6.00
20 | CC(=O)Nc1cc(C(=O)NC(C)c2ccc(OCC(F)F)c(Cl)c2)cc(C)n1 (single isomer, unassigned) [Example 1100, 2-acetamido-N-(1-(3-chloro-4-(2,2-difluoroethoxy)phenyl)ethyl)-6-methylisonicotinamide] | > 6.00
21 | Cc1cc(C(=O)NC(C)c2ccc(OCC(F)F)c(Cl)c2)cc(NC(=O)C(C)C)n1 (single isomer, unassigned) [Example 1101, N-(1-(3-chloro-4-(2,2-difluoroethoxy)phenyl)ethl)-2-isobutyramido-6-methylisonicotinamide] | > 6.00
22 | Cc1cc(C(=O)NC(C)c2ccc(OCC(F)F)cc2C)cc(NC(=O)C(C)C)n1 (single isomer, unassigned) [Example 1104, N-(1-(4-(2,2-difluoroethoxy)-2-methylphenyl)ethyl)-2-isobutyramido-6-methylisonicotinamide] | > 6.00
23 | CCC(=O)Nc1cc(C(=O)NC(C)c2ccc(OCC(F)F)cc2Cl)ccn1 (single isomer, unassigned) [Example 1116, N-(1-(2-chloro-4-(2,2-difluoroethoxy)phenyl)ethyl)-2-propionamidoisonicotinamide] | > 6.00

Now from value to molecule:

Row | pIC50 | SMILES
24 | > 6.00 | Cc1cc(C(=O)NC(C)c2ccc(OCC(F)(F)C(F)(F)F)nc2)cc(NC(=O)C2CC2)n1 (single isomer, unassigned) [Example 837, 2-(cyclopropanecarboxamido)-6-methyl-N-(1-(6-(2,2,3,3,3-pentafluoropropoxy)pyridin-3-yl)ethyl)isonicotinamide]
25 | > 6.00 | Cc1cc(C(=O)N[C@H](C)c2cccc(C(F)(F)F)c2)cc(NC(=O)C2CC2)n1 (single isomer, unassigned) [Example 838]
26 | > 6.00 | Cc1cc(C(C)NC(=O)c2ccnc(NC(=O)C(C)C)c2)ccc1OCC(F)F (single isomer, unassigned) [Example 862, N-(1-(4-(2,2-difluoroethoxy)-3-methylphenyl)ethyl)-2-isobutyramidoisonicotinamide]
27 | > 6.00 | Cc1cc(C(=O)NC(C)c2cccc(OCC(F)(F)F)c2)cc(NC(=O)C(C)C)n1 (single isomer, unassigned) [Example 881, 2-isobutyramido-6-methyl-N-(1-(3-(2,2,2-trifluoroethoxy)phenyl)ethyl)isonicotinamide]
28 | > 6.00 | CC(NC(=O)c1ccnc(NC(=O)C2CC2)c1)c1ccc(OCC(F)(F)C(F)F)nc1 (single isomer, unassigned) [Example 922, 2-(cyclopropanecarboxamido)-N-(1-(6-(2,2,3,3-tetrafluoropropoxy)pyridin-3-yl)ethyl)isonicotinamide]
29 | > 6.00 | CCCC(=O)Nc1cc(C(=O)NC(C)c2cnc(OCC(F)(F)C(F)F)c(C)c2)ccn1 (single isomer, unassigned) [Example 928, 2-butyramido-N-(1-(5-methyl-6-(2,2,3,3-tetrafluoropropoxy)pyridin-3-yl)ethyl)isonicotinamide]
30 | > 6.00 | CC(=O)Nc1cc(C(=O)NC(C)c2cc(C(F)(F)F)ccc2F)cc(C)n1 (single isomer, unassigned) [Example 981, 2-acetamido-N-(1-(2-fluoro-5-(trifluoromethyl)phenyl)ethyl)-6-methyl-isonicotinamide]
31 | > 6.00 | CC(C)C(=O)Nc1cc(C(=O)NC(C)c2cccc(SC(F)(F)F)c2)ccn1 (single isomer, unassigned) [Example 1030, 2-isobutyramido-N-(1-(3-((trifluoromethyl)thio)phenyl)ethyl)isonicotinamide]
32 | > 6.00 | Cc1cc(C(=O)NC(C)c2cccc(SC(F)(F)F)c2)cc(NC(=O)C(C)C)n1 (single isomer, unassigned) [Example 1032, 2-isobutyramido-6-methyl-N-(1-(3-((trifluoromethyl)thio)phenyl)ethyl)isonicotinamide]
33 | > 6.00 | Cc1cc(C(=O)NC(C)c2cnc(OCC(F)F)c(Cl)c2)cc(NC(=O)C2CC2)n1 (single isomer, unassigned) [Example 1063, N-(1-(5-chloro-6-(2,2-difluoroethoxy)pyridin-3-yl)ethyl)-2-(cyclopropanecarboxamido)-6-methylisonicotinamide]
